Experimental data: patent US11613538B2, “Method of inhibiting or reducing a viral infection” (PTC Therapeutics, Inc., priority 2009, dated 2023)

System: hypoxia-induced VEGF production in HeLa cells
Experiment: cells
Assay type: cell-based, human
Conditions: Homo sapiens, HeLa

`CC#CCOC(=O)N1CCc2c([nH]c3ccc(Cl)cc23)C1c1ccc(OCC[C@H](O)CO)cc1` (stereo partly shown) [Compound 1176] and `CC(C)(C)COC(=O)N1CCc2c([nH]c3ccc(Cl)cc23)C1c1ccc(OCC[C@H](O)CO)cc1` (stereo partly shown) [Compound 1177] cannot be ordered by EC50: < 8 nM for the first, < 8 nM for the second.

`O=C(Oc1ccc(Cl)cc1)N1CCc2c([nH]c3ccc(Cl)cc23)C1c1ccc(OCCCNCCO)cc1` (stereo not shown) [Compound 1183] and `O=C(Oc1ccc(Cl)cc1)N1CCc2c([nH]c3ccc(Cl)cc23)C1c1ccc(OCCCN(CCO)CCO)cc1` (stereo not shown) [Compound 1184] cannot be ordered by EC50: < 8 nM for the first, < 8 nM for the second.

`CC(C)(C)OC(=O)N1CCc2c([nH]c3ccc(Cl)cc23)C1c1ccc(OCCCn2ccnn2)cc1` (stereo not shown) [Compound 1185] and `CC(C)(C)OC(=O)N1CCc2c([nH]c3ccc(Cl)cc23)[C@@H]1c1ccc(OCCCn2ccnn2)cc1` [Compound 1239] cannot be ordered by EC50: < 8 nM for the first, < 8 nM for the second.

`CC(C)(C)OC(=O)N1CCc2c([nH]c3ccc(Cl)cc23)C1c1ccc(OCCCn2nccn2)cc1` (stereo not shown) [Compound 1186] and `CC(C)(C)OC(=O)N1CCc2c([nH]c3ccc(Cl)cc23)[C@@H]1c1ccc(OCCCn2nccn2)cc1` [Compound 1240] cannot be ordered by EC50: < 8 nM for the first, < 8 nM for the second.

`CC(C)(C)OC(=O)N1CCc2c([nH]c3ccc(Cl)cc23)C1c1ccc(OCCCn2cnnc2)cc1` (stereo not shown) [Compound 1187] and `CC(C)(C)OC(=O)N1CCc2c([nH]c3ccc(Cl)cc23)C1c1ccc(OCCCn2cncn2)cc1` (stereo not shown) [Compound 1188] cannot be ordered by EC50: < 8 nM for the first, < 8 nM for the second.

`CC(C)(C)OC(=O)N1CCc2c([nH]c3ccc(Cl)cc23)C1c1ccc(OCCCCl)cc1` (stereo not shown) [Compound 1189] and `CC(C)OC(=O)N1CCc2c([nH]c3ccc(Cl)cc23)[C@@H]1c1ccc(OCCCO)cc1` [Compound 1252] cannot be ordered by EC50: < 8 nM for the first, < 8 nM for the second.

`Cc1ccc(C(=O)N2CCc3c([nH]c4ccc(Cl)cc34)C2c2ccc(OCCCN3CCOCC3)cc2)cc1` (stereo not shown) [Compound 1190] and `CC(C)C(=O)N1CCc2c([nH]c3ccc(Cl)cc23)C1c1ccc(OCCCN2CCOCC2)cc1` (stereo not shown) [Compound 1193] fall in the same range of EC50: 40 to 200 nM for the first, 40 to 200 nM for the second.

First: COc1ccc(C(=O)N2CCc3c([nH]c4ccc(Cl)cc34)C2c2ccc(OCCCn3cncn3)cc2)cc1 (stereo not shown) [Compound 1191]
Second: Clc1ccc2[nH]c3c(c2c1)CCN(c1ncccn1)C3c1ccc(OCCCn2cncn2)cc1 (stereo not shown) [Compound 1201]
The EC50 of the first is higher: 40 to 200 nM for the first, < 8 nM for the second. The second is the more potent here.

Compared with `CCOC(=O)N1CCc2c([nH]c3ccc(Cl)cc23)C1c1ccc(OC)c(F)c1` (stereo not shown) [Compound 1198], `CC#CCOC(=O)N1CCc2c([nH]c3ccc(Cl)cc23)C1c1ccc(OC)c(F)c1` (stereo not shown) [Compound 1232] is higher in EC50: 8 to 40 nM for the first, 40 to 200 nM for the second. The first is the more potent here.

`Clc1ccc2[nH]c3c(c2c1)CCN(c1ncccn1)C3c1ccc(OCCCn2ccnn2)cc1` (stereo not shown) [Compound 1200] and `C=CCOc1ccc([C@H]2c3[nH]c4ccc(Cl)cc4c3CCN2c2ncccn2)cc1` [Compound 1237] cannot be ordered by EC50: < 8 nM for the first, < 8 nM for the second.

`CCOC(=O)N1CCc2c([nH]c3ccc(Cl)cc23)[C@@H]1c1ccc(OCC[C@H]2COC(C)(C)O2)cc1` [Compound 1202] and `CCOC(=O)N1CCc2c([nH]c3ccc(Cl)cc23)[C@@H]1c1ccc(OC[C@H]2COC(C)(C)O2)cc1` [Compound 1226] cannot be ordered by EC50: < 8 nM for the first, < 8 nM for the second.

`CC1(C)OC[C@H](CCOc2ccc([C@H]3c4[nH]c5ccc(Cl)cc5c4CCN3C(=O)Oc3ccc(Cl)cc3)cc2)O1` [Compound 1203] and `CC1(C)OC[C@H](COc2ccc([C@H]3c4[nH]c5ccc(Cl)cc5c4CCN3C(=O)Oc3ccc(Cl)cc3)cc2)O1` [Compound 1227] cannot be ordered by EC50: < 8 nM for the first, < 8 nM for the second.

`CCOC(=O)N1CCc2c([nH]c3ccc(Cl)cc23)[C@@H]1c1ccc(OCC2COC(C)(C)OC2)cc1` [Compound 1206] and `C=CCOc1ccc([C@H]2c3[nH]c4ccc(Cl)cc4c3CCN2C(=O)OCC)cc1` [Compound 1217] cannot be ordered by EC50: < 8 nM for the first, < 8 nM for the second.

First: CCOC(=O)N1CCc2c([nH]c3ccc(Cl)cc23)C1c1ccc(OCC(CO)CO)cc1 (stereo not shown) [Compound 1208]
Second: CCOC(=O)N1CCc2c([nH]c3ccc(Cl)cc23)[C@@H]1c1ccc(OC[C@H](O)CO)cc1 [Compound 1221]
The EC50 of the first is higher: 8 to 40 nM for the first, < 8 nM for the second.

First: O=C(Oc1ccc(Cl)cc1)N1CCc2c([nH]c3ccc(Cl)cc23)[C@@H]1c1ccc(OCC(CO)CO)cc1 [Compound 1209]
Second: O=C(Oc1ccc(Cl)cc1)N1CCc2c([nH]c3ccc(Cl)cc23)C1c1ccc(OC(CO)CO)cc1 (stereo not shown) [Compound 1231]
The EC50 of the first is lower: < 8 nM for the first, 8 to 40 nM for the second. The first is the more potent here.

`CCOC(=O)N1CCc2c([nH]c3ccc(Cl)cc23)C1c1ccc(OCC(N)=O)cc1` (stereo not shown) [Compound 1210] and `NC(=O)COc1ccc(C2c3[nH]c4ccc(Cl)cc4c3CCN2C(=O)OCCF)cc1` (stereo not shown) [Compound 1211] fall in the same range of EC50: 8 to 40 nM for the first, 8 to 40 nM for the second.

First: CC#CCOC(=O)N1CCc2c([nH]c3ccc(Cl)cc23)C1c1ccc(OCC(N)=O)cc1 (stereo not shown) [Compound 1212]
Second: CCOC(=O)N1CCc2c([nH]c3ccc(Cl)cc23)[C@@H]1c1ccc(OCCCO)cc1 [Compound 1251]
The EC50 of the first is higher: 8 to 40 nM for the first, < 8 nM for the second. The second is the more potent here.

`NC(=O)COc1ccc(C2c3[nH]c4ccc(Cl)cc4c3CCN2C(=O)Oc2ccc(Br)cc2)cc1` (stereo not shown) [Compound 1214] and `NC(=O)COc1ccc(C2c3[nH]c4ccc(Cl)cc4c3CCN2C(=O)Oc2ccc(F)cc2)cc1` (stereo not shown) [Compound 1215] fall in the same range of EC50: 8 to 40 nM for the first, 8 to 40 nM for the second.

First: CCOC(=O)N1CCc2c([nH]c3ccc(Cl)cc23)[C@@H]1c1ccc(O)cc1 [Compound 1218]
Second: CCOC(=O)N1CCc2c([nH]c3ccc(Cl)cc23)[C@@H]1c1ccc(OC[C@@H](O)CO)cc1 [Compound 1222]
The EC50 of the first is higher: 8 to 40 nM for the first, < 8 nM for the second. The second is the more potent here.

First: Clc1ccc2[nH]c3c(c2c1)CCNC3c1ccc(OC2CCOCC2)cc1 (stereo not shown) [Compound 1220]
Second: COc1ccc(C2c3[nH]c4ccc(Cl)cc4c3CCN2C(N)=S)cc1 (stereo not shown) [Compound 1247]
The EC50 of the first is lower: 40 to 200 nM for the first, 200 to 1000 nM for the second. The first is the more potent here.

`CCOC(COc1ccc(C2c3[nH]c4ccc(Cl)cc4c3CCN2C(=O)Oc2ccc(Cl)cc2)cc1)OCC` (stereo not shown) [Compound 1228] and `CCCN(CCC)CCCOc1ccc([C@H]2c3[nH]c4ccc(Cl)cc4c3CCN2C(=O)Oc2ccc(Cl)cc2)cc1` [Compound 1234] cannot be ordered by EC50: < 8 nM for the first, < 8 nM for the second.

`CCCN(CCC)CCCOc1ccc([C@H]2c3[nH]c4ccc(Cl)cc4c3CCN2C(=O)OCC)cc1` [Compound 1233] and `CCOC(=O)N1CCc2c([nH]c3ccc(Cl)cc23)[C@@H]1c1ccc(OCCCNC2CCCC2)cc1` [Compound 1236] fall in the same range of EC50: 8 to 40 nM for the first, 8 to 40 nM for the second.

`O=C(Oc1ccc(Cl)cc1)N1CCc2c([nH]c3ccc(Cl)cc23)[C@@H]1c1ccc(OCCCNC2CCCC2)cc1` [Compound 1235] and `Clc1ccc2[nH]c3c(c2c1)CCN(c1ncccn1)[C@H]3c1ccc(OC[C@@H]2CO2)cc1` [Compound 1245] fall in the same range of EC50: 8 to 40 nM for the first, 8 to 40 nM for the second.

`Oc1ccc([C@H]2c3[nH]c4ccc(Cl)cc4c3CCN2c2ncccn2)cc1` [Compound 1241] and `Clc1ccc2[nH]c3c(c2c1)CCN(c1ncccn1)[C@H]3c1ccc(OC[C@H]2CO2)cc1` [Compound 1246] fall in the same range of EC50: 8 to 40 nM for the first, 8 to 40 nM for the second.

`CC1(C)OCC(COc2ccc([C@H]3c4[nH]c5ccc(Cl)cc5c4CCN3c3ncccn3)cc2)CO1` [Compound 1242] and `CC1(C)OC[C@H](CCOc2ccc([C@H]3c4[nH]c5ccc(Cl)cc5c4CCN3c3ncccn3)cc2)O1` [Compound 1244] cannot be ordered by EC50: < 8 nM for the first, < 8 nM for the second.

First: OCC(CO)COc1ccc(C2c3[nH]c4ccc(Cl)cc4c3CCN2c2ncccn2)cc1 (stereo not shown) [Compound 1243]
Second: O[C@H](COc1ccc([C@H]2c3[nH]c4ccc(Cl)cc4c3CCN2c2ncccn2)cc1)CN1CCOCC1 [Compound 1249]
The EC50 of the first is higher: 8 to 40 nM for the first, < 8 nM for the second.
